Test results from US8541470B2, “Topical pharmaceutical formulation” (Futura Medical Developments Limited, priority 2007, dated 2013).
Structures can show the parent of a compound that is named as a salt. Each block holds one compound with its values, some of them ahead of it.

What was measured:
[1] = saturated solubility in solvents; format: physicochemical
[2] = topical regional use; relative to piroxicam; cited from earlier work

saturated solubility in propylene glycol ([1]; solvent propylene glycol): approximately 50 % w/w
SMILES: O=C(O)Cc1ccccc1Nc1c(Cl)cccc1Cl [sodium salt of diclofenac acid, diclofenac sodium]

saturated solubility in polyethylene glycol ([1]; solvent polyethylene glycol): 11.18 % w/w
saturated solubility in propanol or iso-propanol ([1]; solvent propanol or iso-propanol): 3-4%
saturated solubility in pure ethanol ([1]; solvent pure ethanol): 5 % w/w
SMILES: O=C(O)Cc1ccccc1Nc1c(Cl)cccc1Cl [diclofenac acid]

SMILES: O=C(O)Cc1ccccc1Nc1c(Cl)cccc1Cl [diclofenac]
efficacy index, factor greater than that for piroxicam [2]: ~1000
